Source: PubChem BioAssay AID248 (DTP/NCI, 2004)
Inconclusive results and toxic doses are left out.

Test system: L1210 leukemia ip in BDF1 mice, survival T/C
Assay: NCI In Vivo Anticancer Drug Screen. Data for tumor model L1210 Leukemia (intraperitoneal) in B6D2F1 (BDF1) mice
Conditions: endpoint: mean survival time, higher = longer survival
Outline: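 Mice bearing the transplanted tumor received compound or vehicle. Survival of the treated group was divided by that of the vehicle-treated control group to give the ratio.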

[1] = dose: 100.0 mg/kg/injection, schedule: Q01DX001 (ip), vehicle: saline
[2] = dose: 200.0 mg/kg/injection, schedule: Q01DX001 (ip), vehicle: saline
[3] = dose: 400.0 mg/kg/injection, schedule: Q01DX001 (ip), vehicle: saline

With O=c1cccc(CCCCCCc2cccc(=O)[nH]2)[nH]1 the T/C [1] was 106 % of control, the T/C [2] was 95 % of control and the T/C [3] was 96 % of control.
With CC(C)(C)NP(c1ccccc1)c1ccccc1 the T/C [1] was 101 % of control, the T/C [2] was 104 % of control and the T/C [3] was 98 % of control.
In the case of COc1cc(C=Nc2ccc(C(=O)O)c(O)c2)ccc1N(CCCl)CCCl, the T/C (dose: 11.0 mg/kg/injection, schedule: Q01DX001 (ip), vehicle: carboxymethylcellulose (CMC)) is reported as 118 % of control.
For N#CCNC(=O)c1ccc(I)cc1, the T/C (dose: 100.0 mg/kg/injection, schedule: Q01DX001 (ip), vehicle: Klucel (hydroxypropylcellulose) (HPC)) was 111 % of control, the T/C (dose: 200.0 mg/kg/injection, schedule: Q01DX001 (ip), vehicle: Klucel (hydroxypropylcellulose) (HPC)) was 95 % of control and the T/C (dose: 400.0 mg/kg/injection, schedule: Q01DX001 (ip), vehicle: Klucel (hydroxypropylcellulose) (HPC)) was 106 % of control.
CC(=O)OCc1ccc(/C=N/N2C(=O)CSC2=S)o1 was tested, and the T/C (dose: 75.0 mg/kg/injection, schedule: Q01DX001 (ip), vehicle: carboxymethylcellulose (CMC)) was 105 % of control, the T/C (dose: 150.0 mg/kg/injection, schedule: Q01DX001 (ip), vehicle: carboxymethylcellulose (CMC)) was 100 % of control and the T/C (dose: 300.0 mg/kg/injection, schedule: Q01DX001 (ip), vehicle: carboxymethylcellulose (CMC)) was 97 % of control.
With Nc1ncnc2nc(C3OC(CO)C(O)C3O)[nH]c12 (configuration not stated) the T/C (dose: 100.0 mg/kg/injection, schedule: Q01DX005 (ip), vehicle: saline) was 96 % of control and the T/C (dose: 200.0 mg/kg/injection, schedule: Q01DX005 (ip), vehicle: saline) was 96 % of control.
COc1cccc2c1C(=O)c1c(O)c3c(c(O)c1C2=O)CC(O)(C(C)=O)CC3OC1CC(N)C(OC2CC(N)C(O)C(C)O2)C(C)O1 (configuration not stated) was tested, and the T/C (dose: 0.65 mg/kg/injection, schedule: Q01DX009 (ip), vehicle: saline) was 111 % of control, the T/C (dose: 1.25 mg/kg/injection, schedule: Q01DX009 (ip), vehicle: saline) was 117 % of control and the T/C (dose: 10.0 mg/kg/injection, schedule: Q01DX009 (ip), vehicle: saline) was 89 % of control.
In the case of O=[N+]([O-])/C=C/c1c(O)c(Cl)cc(Cl)c1Cl, the T/C (dose: 12.5 mg/kg/injection, schedule: Q04DX002 (ip), vehicle: Klucel (hydroxypropylcellulose) (HPC)) is reported as 92 % of control, the T/C (dose: 25.0 mg/kg/injection, schedule: Q04DX002 (ip), vehicle: Klucel (hydroxypropylcellulose) (HPC)) is reported as 92 % of control and the T/C (dose: 50.0 mg/kg/injection, schedule: Q04DX002 (ip), vehicle: Klucel (hydroxypropylcellulose) (HPC)) is reported as 95 % of control.
With C/C=C(\C)C(=NC)Nc1ccc(Cl)c(Cl)c1 the T/C (dose: 222.0 mg/kg/injection, schedule: Q01DX Z (ip), vehicle: methylcellulose (MC)) was 94 % of control and the T/C (dose: 333.0 mg/kg/injection, schedule: Q01DX Z (ip), vehicle: methylcellulose (MC)) was 90 % of control.
With CC(=O)Nc1ccc2c(c1)[nH]c(=O)c1ccccc12 the T/C (dose: 100.0 mg/kg/injection, schedule: Q01DX001 (ip), vehicle: carboxymethylcellulose (CMC)) was 96 % of control, the T/C (dose: 200.0 mg/kg/injection, schedule: Q01DX001 (ip), vehicle: carboxymethylcellulose (CMC)) was 93 % of control and the T/C (dose: 400.0 mg/kg/injection, schedule: Q01DX001 (ip), vehicle: carboxymethylcellulose (CMC)) was 96 % of control.
For Nc1ncnc2c1ncn2C1OC(CO)C(NC(=S)SCc2ccccc2)C1O (configuration not stated), the T/C (dose: 75.0 mg/kg/injection, schedule: Q01DX001 (ip), vehicle: saline) was 101 % of control, the T/C (dose: 150.0 mg/kg/injection, schedule: Q01DX001 (ip), vehicle: saline) was 87 % of control and the T/C (dose: 300.0 mg/kg/injection, schedule: Q01DX001 (ip), vehicle: saline) was 101 % of control.
COc1ccc(OC(C)=O)c2c1C(=O)OC(C)C2NC(=O)C(C)NC(C)=O (configuration not stated) was tested, and the T/C (dose: 12.5 mg/kg/injection, schedule: Q04DX002 (ip), vehicle: saline with Tween-80) was 103 % of control, the T/C (dose: 25.0 mg/kg/injection, schedule: Q04DX002 (ip), vehicle: saline with Tween-80) was 107 % of control and the T/C (dose: 50.0 mg/kg/injection, schedule: Q04DX002 (ip), vehicle: saline with Tween-80) was 100 % of control.
With CCOc1ccc(-c2nccs2)cc1N the T/C (dose: 75.0 mg/kg/injection, schedule: Q04DX003 (ip), vehicle: Klucel (hydroxypropylcellulose) (HPC)) was 104 % of control, the T/C (dose: 150.0 mg/kg/injection, schedule: Q04DX003 (ip), vehicle: Klucel (hydroxypropylcellulose) (HPC)) was 92 % of control and the T/C (dose: 300.0 mg/kg/injection, schedule: Q04DX003 (ip), vehicle: Klucel (hydroxypropylcellulose) (HPC)) was 93 % of control.
ClCC1CC2CC1C1OC21 (configuration not stated) was tested, and the T/C [1] was 106 % of control.
With C=C1C=C(c2ccccc2)N(C(=O)c2ccccc2I)CCN1C(=O)c1ccccc1I the T/C (dose: 100.0 mg/kg/injection, schedule: Q04DX003 (ip), vehicle: Klucel (hydroxypropylcellulose) (HPC)) was 114 % of control, the T/C (dose: 200.0 mg/kg/injection, schedule: Q04DX003 (ip), vehicle: Klucel (hydroxypropylcellulose) (HPC)) was 89 % of control and the T/C (dose: 400.0 mg/kg/injection, schedule: Q04DX003 (ip), vehicle: Klucel (hydroxypropylcellulose) (HPC)) was 94 % of control.
With CC(C)(C)NCC1CCCC1 the T/C (dose: 20.0 mg/kg/injection, schedule: Q04DX003 (ip), vehicle: saline) was 109 % of control, the T/C (dose: 40.0 mg/kg/injection, schedule: Q04DX003 (ip), vehicle: saline) was 115 % of control and the T/C (dose: 80.0 mg/kg/injection, schedule: Q04DX003 (ip), vehicle: saline) was 111 % of control.
